In US20100273789A1, “AMINOACYL PRODRUGS” (BAYER SCHERING PHARMA AKTIENGESELLSCHAFT, priority 2007, published 2010):

Assay: Determination of the solubility
Assay type: physicochemical
Conditions: in water and physiological media
Description: The test substance is suspended in water or dilute hydrochloric acid (pH 4). This suspension is shaken at room temperature for 24 h. After ultracentrifugation at 224 000 g for 30 min, the supernatant is diluted with DMSO and analyzed by HPLC. A two-point calibration plot of the test compound in DMSO is used for quantification.
Agilent 1100 with DAD (G1315A), quat. pump (G1311A), autosampler CTC HTS PAL, degasser (G1322A) and column thermostat (G1316A); column: Zorbax Extend-C18 3.5μ; temperature: 40° C.; mobile phase A: water+5 ml of perchloric acid/liter, mobile phase B: acetonitrile; flow rate: 0.7 ml/min; gradient: 0-0.5 min 98% A, 2% B; ramp 0.5-4.5 min 10% A, 90% B; 4.5-6 min 10% A, 90% B; ramp 6.5-6.7 min 98% A, 2% B; 6.7-7.5 min 98% A, 2% B.

solubility: limited solubility
SMILES: O=C(NC[C@H]1CN(c2ccc(N3CCOCC3=O)cc2F)C(=O)O1)c1ccc(Cl)s1 [compound (A), 5-Chloro-N-({(5S)-3-[2-fluoro-4-(3-oxomorpholin-4-yl)phenyl]-2-oxo-1,3-oxazolidin-5-yl}methyl)thiophene-2-carboxamide]
